The assay deals with c-myc in 22RV-1 cells. Put plainly: Human c-myc ELISA assay. In kind it is cell-based. To be noted: Homo sapiens; for Emax: 22Rv1, 18 h, read-out: Degradation of BRD4: Maximum inhibition (%) c-Myc ELISA in 22RV1 cells; for DC50: 22Rv1, read-out: Degradation of BRD4: DC50 (uM) c-Myc ELISA in 22RV1 cells. As to the method: 22RV-1 cells are seeded at 30,000 cells/well at a volume of 75 μL/well in RPMI+10% FBS media in 96-well plates and grown overnight at 37 C. Cells are dosed with compounds at 4× concentration diluted in 0.4% DMSO; compounds are serially diluted 1:3 for 8-point dose curve. 25 ul of compounds is added to cells for a final concentration starting at 300 nM-0.3 nM or 1 uM-1 nM in 0.1% DMSO and incubated for 18 hrs. Media is aspirated, cells washed 1× with PBS and aspirated. Cells are lysed in 50 ul RIPA buffer (50 mM Tris pH8, 150 mM NaCl, 1% Tx-100, 0.1% SDS, 0.5% sodium deoxycholate) supplemented with protease and phosphatase inhibitors. Plates are incubated on ice for 15 minutes then centrifuged at 4 C for 10 min at 4000 rpm. Add 50 ul of cleared lysate from 96-well assay plate into 96-well c-myc ELISA plate (Novex, Life Technologies Catalog #KH02041). Reconstitute c-myc standard with standard diluent buffer; standard curve range is 333 pg/ml-0 pg/ml, diluted 1:2 for 8-point dose curve. The rest of the assay was performed following the protocol from the c-myc ELISA kit. Data is analyzed and plotted using GraphPad Prism software. Compounds described in this application were assayed and c-myc suppression potency is listed in the following Table (A: DC50<10 nM; B: DC50 10-100 nM; C: DC50: 100-1000 nM; D: DC50>1000 nM)
Background: ELISA stands for enzyme-linked immunosorbent assay.

As usually defined, the DC50 is the concentration at which degradation of the target reaches its halfway point.

With `Cc1ncsc1-c1ccc(CNC(=O)[C@@H]2C[C@@H](O)CN2C(=O)[C@@H](NC(=O)COCCCOCCCOc2ccc3c(c2)c2c(C(N)=O)cc(-c4c(C)noc4C)cc2n3Cc2ccccc2)C(C)(C)C)cc1` [Example 133, 9-benzyl-2-(dimethyl-1,2-oxazol-4-yl)-6-{3-[3-({[(2S)-1-[(2S,4R)-4-hydroxy-2-({[4-(4-methyl-1,3-thiazol-5-yl)phenyl]methyl}carbamoyl)pyrrolidin-1-yl]-3,3-dimethyl-1-oxobutan-2-yl]carbamoyl}methoxy)propoxy]propoxy}-9H-carbazole-4-carboxamide], the Emax was 98% and the DC50 was 0.01 to 0.1 µM.
With `Cc1ncsc1-c1ccc(CNC(=O)[C@@H]2C[C@@H](O)CN2C(=O)[C@H](C(C)C)n2cc(-c3cccc(O[C@H](C)CNC(=O)C[C@@H]4N=C(c5ccc(Cl)cc5)c5c(sc(C)c5C)-n5c(C)nnc54)c3)cn2)cc1` [Example 232], the Emax was 83% and the DC50 is 0.01 to 0.1 µM.
As for `Cc1ncsc1-c1ccc(CNC(=O)[C@@H]2C[C@@H](O)CN2C(=O)[C@H](C(C)C)n2cc(-c3cccc(OCCNC(=O)C[C@@H]4N=C(c5ccc(Cl)cc5)c5c(sc(C)c5C)-n5c(C)nnc54)c3)cn2)cc1` [Example 163], the Emax was determined as 96.5% and the half-maximal degradation concentration (DC50) is < 0.01 µM.
With `Cc1ncoc1-c1ccc([C@H](C)NC(=O)[C@@H]2C[C@@H](O)CN2C(=O)[C@@H](NC(=O)COc2ccc(O[C@H]3C[C@@H](NC(=O)C[C@@H]4N=C(c5ccc(Cl)cc5)c5c(sc(C)c5C)-n5c(C)nnc54)C3)nc2)C(C)(C)C)cc1` [Example 278], the Emax was found to be 95.4% and the DC50 was < 0.01 µM.
Taken in the same sequence, the figures for `Cc1ncsc1-c1ccc(CNC(=O)[C@@H]2C[C@@H](O)CN2C(=O)[C@@H](NC(=O)CCc2ccc(OCCNC(=O)C[C@@H]3N=C(c4ccc(Cl)cc4)c4c(sc(C)c4C)-n4c(C)nnc43)nc2)C(C)(C)C)cc1` [Example 139, (2S,4R)-1-[(2S)-2-{3-[6-(2-{2-[(9S)-7-(4-chlorophenyl)-4,5,13-trimethyl-3-thia-1,8,11,12-tetraazatricyclo[8.3.0.0^2,^6]trideca-2(6),4,7,10,12-pentaen-n-9-yl]acetamido}ethoxy)pyridin-3-yl]propanamido}-3,3-dimethylbutanoyl]-4-hydroxy-N-{[4-(4-methyl-1,3-thiazol-5-yl)phenyl]methyl}pyrrolidine-2-carboxamide] were 98% and < 0.01 µM.
For the compound `Cc1ncsc1-c1ccc(CNC(=O)[C@@H]2C[C@@H](O)CN2C(=O)[C@@H](NC(=O)COCCCOCCCOc2ccc(NC(=O)C[C@@H]3N=C(c4ccc(Cl)cc4)c4c(sc(C)c4C)-n4c(C(C)C)nnc43)cc2)C(C)(C)C)cc1` [Example 54], the Emax stood at 63% and the DC50 was > 1 µM.
As to `Cc1ncsc1-c1ccc(CNC(=O)C2C[C@@H](O)CN2C(=O)[C@@H](NC(=O)COCCOCCOCCOCCOc2ccc3c(c2)c2c(C(N)=O)cc(-c4c(C)noc4C)cc2n3Cc2ccccc2)C(C)(C)C)cc1` (stereo partly shown) [Example 89, 9-Benzyl-2-(dimethyl-1,2-oxazol-4-yl)-6{[1-({1-[4-hydroxy-2-({[4-(4-methyl-1,3-thiazol-5-yl)phenyl]methyl}carbamoyl)pyrrolidin-1-yl]-3,3-dimethyl-1-oxobutan-2-yl}carbamoyl)-2,5,8,11-tetraoxatridecan-13-yl]oxy}-9H-carbazole-4-carboxamide], the Emax worked out at 99.5% and the DC50 fell in the range of 0.01 to 0.1 µM.
In the same order, the values of `Cc1ncsc1-c1ccc([C@H](C)NC(=O)[C@@H]2C[C@@H](O)CN2C(=O)[C@@H](NC(=O)CCCCC(=O)N2CCN(C(=O)C[C@@H]3N=C(c4ccc(Cl)cc4)c4c(sc(C)c4C)-n4c(C)nnc43)CC2)C(C)(C)C)cc1` [Example 319] are 78.5% and 0.1 to 1 µM.
Taken in the same sequence, the figures for `Cc1ncsc1-c1ccc(CNC(=O)[C@@H]2C[C@@H](O)CN2C(=O)[C@@H](NC(=O)COCCCCOc2cccc(NC(=O)C[C@@H]3N=C(c4ccc(Cl)cc4)c4c(sc(C)c4C)-n4c(C)nnc43)c2)C(C)(C)C)cc1` [Example 126] were 99% and < 0.01 µM.
On to `CNC[C@H](NC(=O)[C@@H]1C[C@@H](O)CN1C(=O)[C@@H](NC(=O)COCCCOCCNC(=O)C[C@@H]1N=C(c2ccc(Cl)cc2)c2c(sc(C)c2C)-n2c(C)nnc21)C(C)(C)C)c1ccc(-c2scnc2C)cc1` [Example 110], for which the Emax was determined as 7.14% and the DC50 is > 1 µM.
As to `Cc1ncsc1-c1ccc([C@H](C)NC(=O)[C@@H]2C[C@@H](O)CN2C(=O)[C@@H](NC(=O)c2ccc(OCCCNC(=O)C[C@@H]3N=C(c4ccc(Cl)cc4)c4c(sc(C)c4C)-n4c(C)nnc43)cn2)C(C)(C)C)cc1` [Example 114, 5-(3-{2-[(9S)-7-(4-chlorophenyl)-4,5,13-trimethyl-3-thia-1,8,11,12-tetraazatricyclo[8.3.0.0^2,^6]trideca-2(6),4,7,10,12-pentaen-9-yl]acetamido}propoxy)-N-[(2S)-1-[(2S,4R)-4-hydroxy-2-{[(1S)-1-[4-(4-methyl-1,3-thiazol-5-yl)phenyl]ethyl]carbamoyl}pyrrolidin-1-yl]-3,3-dimethyl-1-oxobutan-2-yl]pyridine-2-carboxamide], the Emax worked out at 99.5% and the DC50 is < 0.01 µM.
Consider `Cc1ncsc1-c1ccc(CNC(=O)[C@@H]2C[C@@H](O)CN2C(=O)[C@@H](NC(=O)COCCCSCCNC(=O)C[C@@H]2N=C(c3ccc(Cl)cc3)c3c(sc(C)c3C)-n3c(C)nnc32)C(C)(C)C)cc1` [Example 100], for which the Emax was 99% and the DC50 lay in the range of 0.01 to 0.1 µM.
Taken in the same sequence, the figures for `Cc1ncsc1-c1ccc([C@H](C)NC(=O)[C@@H]2C[C@@H](O)CN2C(=O)[C@@H](C(C)C)n2cc(-c3ccnc(N4CC(NC(=O)C[C@@H]5N=C(c6ccc(Cl)cc6)c6c(sc(C)c6C)-n6c(C)nnc65)C4)c3)cn2)cc1` [Example 247] were 24.1% and > 1 µM.
For `Cc1ncsc1-c1ccc([C@H](C)NC(=O)[C@@H]2C[C@@H](O)CN2C(=O)[C@@H](C(C)C)n2cc(-c3ccnc(O[C@H]4C[C@@H](NC(=O)C[C@@H]5N=C(c6ccc(Cl)cc6)c6c(sc(C)c6C)-n6c(C)nnc65)C4)n3)cn2)cc1` [Example 300], the Emax came out at 24% and the DC50 was > 1 µM.
With `Cc1sc2c(c1C)C(c1ccc(Cl)cc1)=N[C@@H](CC(=O)N[C@H]1C[C@@H](Oc3cccc(-c4cnn([C@H](C(=O)N5C[C@H](O)C[C@H]5C(=O)N[C@@H](C)c5ccc(-n6ccnc6C)cc5)C(C)C)c4)c3)C1)c1nnc(C)n1-2` [Example 299], the Emax came out at 72.5% and the DC50 was in the range of 0.1 to 1 µM.
Regarding `Cc1ncsc1-c1ccc(CNC(=O)C2C[C@@H](O)CN2C(=O)[C@@H](NC(=O)COCCCOCCOc2cccc(NC(=O)C[C@@H]3N=C(c4ccc(Cl)cc4)c4c(sc(C)c4C)-n4c(C)nnc43)c2)C(C)(C)C)cc1` (stereo partly shown) [Example 94], the Emax is 98.5% and the DC50 is < 0.01 µM.
As to `Cc1ncsc1-c1ccc(CNC(=O)[C@@H]2C[C@@H](O)CN2C(=O)[C@@H](NC(=O)COCCn2cc(-c3ccc([C@@H](C)NC(=O)C[C@@H]4N=C(c5ccc(Cl)cc5)c5c(sc(C)c5C)-n5c(C)nnc54)cc3)cn2)C(C)(C)C)cc1` [Example 78], the Emax amounted to 86.7% and the 50% degradation concentration (DC50) fell in the range of 0.1 to 1 µM.
In the case of `Cc1ncsc1-c1ccc([C@H](C)NC(=O)[C@@H]2C[C@@H](O)CN2C(=O)[C@@H](NC(=O)CN2CCC(N3CCC(NC(=O)C[C@@H]4N=C(c5ccc(Cl)cc5)c5c(sc(C)c5C)-n5c(C)nnc54)CC3)CC2)C(C)(C)C)cc1` [Example 353, (2S,4R)-1-[(2S)-2-{2-[4-(4-{2-[(9S)-7-(4-chlorophenyl)-4,5,13-trimethyl-3-thia-1,8,11,12-tetraazatricyclo[8.3.0.0^2,6]trideca-2(6),4,7,10,12-[0261]pentaen-9-yl]acetamido}piperidin-1-yl)piperidin-1-yl]acetamido}-3,3-dimethylbutanoyl]-4-hydroxy-N-[(1S)-1-[4-(4-methyl-1,3-thiazol-5-yl)phenyl]ethyl]pyrrolidine-2-carboxamide], the Emax was > 90% and the DC50 lay within 0.1 to 1 µM.
Taken in the same sequence, the figures for `Cc1ncsc1-c1ccc(CNC(=O)[C@@H]2C[C@@H](O)CN2C(=O)[C@@H](NC(=O)c2cccc(CCOCCNC(=O)C[C@@H]3N=C(c4ccc(Cl)cc4)c4c(sc(C)c4C)-n4c(C)nnc43)n2)C(C)(C)C)cc1` [Example 164] were 96% and 0.01 to 0.1 µM.
Taken in the same sequence, the figures for `Cc1ncsc1-c1ccc(CNC(=O)[C@@H]2C[C@@H](O)CN2C(=O)[C@@H](NC(=O)COCc2ccc(Oc3cccc(NC(=O)C[C@@H]4N=C(c5ccc(Cl)cc5)c5c(sc(C)c5C)-n5c(C)nnc54)c3)cc2)C(C)(C)C)cc1` [Example 95] were 99.5% and < 0.01 µM.

(Values after patent US11554171B2, “Compounds and methods for the targeted degradation of bromodomain-containing proteins” (Arvinas Operations, Inc., priority 2015, dated 2023).)
